We go through ten molecules from patent US9873709B2 (priority 2013, dated 2018).

The subject of this assay is JAK1-dependent STAT6 phosphorylation downstream of IL-13 stimulation in TF-1 human erythroleukemia cells. Put plainly: cells. The note with it: TF-1, read-out: IL-13-pSTAT6 IC50.
Usually IC50 stands for the point on the concentration scale where inhibition reaches its midpoint. For the molecule `CCOC(=O)N1CC=C(c2cccn3nc(Nc4ccc(C(=O)NCC5CCCCN5)cc4)nc23)CC1` (stereo not shown) [Example 2-114, ethyl 4-[2-[4-(2-piperidylmethylcarbamoyl)anilino]-[1,2,4]triazolo[1,5-a]pyridin-8-yl]-3,6-dihydro-2H-pyridine-1-carboxylate], the IC50 is 69.2 nM. Take `CCOC(=O)N1CC=C(c2cccn3nc(Nc4ccc(C(=O)N5CC(C(=O)N(C)C)C5)cc4)nc23)CC1` [Example 2-115, ethyl 4-[2-[4-[3-(dimethylcarbamoyl)azetidine-1-carbonyl]anilino]-[1,2,4]triazolo[1,5-a]pyridin-8-yl]-3,6-dihydro-2H-pyridine-1-carboxylate]: the IC50 turned out to be 19 nM. In the case of `CCOC(=O)N1CC=C(c2cccn3nc(Nc4ccc(C(=O)N(C)CCc5ccncc5)cc4)nc23)CC1` [Example 2-119, ethyl 4-[2-[4-[methyl-[2-(4-pyridyl)ethyl]carbamoyl]anilino]-[1,2,4]triazolo[1,5-a]pyridin-8-yl]-3,6-dihydro-2H-pyridine-1-carboxylate] it was 23.9 nM; in that of `CCOC(=O)N1CC=C(c2cccn3nc(Nc4ccc(C(=O)N5CC6CN(C)CC(C5)O6)cc4)nc23)CC1` [Example 2-123, ethyl 4-[2-[4-(7-methyl-9-oxa-3,7-diazabicyclo[3.3.1]nonane-3-carbonyl)anilino]-[1,2,4]triazolo[1,5-a]pyridin-8-yl]-3,6-dihydro-2H-pyridine-1-carboxylate], 48.8 nM; in that of `CCOC(=O)N1CC=C(c2cccn3nc(Nc4ccc(C(=O)NCc5cc(C)ccn5)cc4)nc23)CC1` [Example 2-124, ethyl 4-[2-[4-[(4-methyl-2-pyridyl)methylcarbamoyl]anilino]-[1,2,4]triazolo[1,5-a]pyridin-8-yl]-3,6-dihydro-2H-pyridine-1-carboxylate], 38.5 nM. Consider `CCOC(=O)N1CC=C(c2cccn3nc(Nc4ccc(C(=O)N5CCC(CN)C5)cc4)nc23)CC1` (stereo not shown) [Example 2-130, ethyl 4-[2-[4-[3-(aminomethyl)pyrrolidine-1-carbonyl]anilino]-[1,2,4]triazolo[1,5-a]pyridin-8-yl]-3,6-dihydro-2H-pyridine-1-carboxylate], for which the half-maximal inhibitory concentration (IC50) was determined as 226 nM.

For the molecule `O=C(CCC(F)(F)F)N1CC=C(c2cccn3nc(Nc4ccc(C(=O)N5CCC6(CCNC6)CC5)cc4)nc23)CC1` [Example 2-136, 1-[4-[2-[4-(2,8-diazaspiro[4.5]decane-8-carbonyl)anilino]-[1,2,4]triazolo[1,5-a]pyridin-8-yl]-3,6-dihydro-2H-pyridin-1-yl]-4,4,4-trifluoro-butan-1-one], the 50% inhibitory concentration (IC50) is 163 nM. As to `O=C(NC1CCCNC1)c1ccc(Nc2nc3c(C4=CCN(C(=O)CCC(F)(F)F)CC4)cccn3n2)cc1` (stereo not shown) [Example 2-137, N-(3-piperidyl)-4-[[8-[1-(4,4,4-trifluorobutanoyl)-3,6-dihydro-2H-pyridin-4-yl]-[1,2,4]triazolo[1,5-a]pyridin-2-yl]amino]benzamide], the IC50 was 78.8 nM. For `O=C(N[C@H]1CCCNC1)c1ccc(Nc2nc3c(C4=CCN(C(=O)CCC(F)(F)F)CC4)cccn3n2)cc1` [Example 2-138, N-[(3S)-3-piperidyl]-4-[[8-[1-(4,4,4-trifluorobutanoyl)-3,6-dihydro-2H-pyridin-4-yl]-[1,2,4]triazolo[1,5-a]pyridin-2-yl]amino]benzamide], the IC50 is 61.9 nM. With `O=C(CCC(F)(F)F)N1CC=C(c2cccn3nc(Nc4ccc(C(=O)N5CCO[C@@H]6CNC[C@@H]65)cc4)nc23)CC1` [Example 2-139, 1-[4-[2-[4-[(4aS,7aR)-3,4a,5,6,7,7a-hexahydro-2H-pyrrolo[3,4-b][1,4]oxazine-4-carbonyl]anilino]-[1,2,4]triazolo[1,5-a]pyridin-8-yl]-3,6-dihydro-2H-pyridin-1-yl]-4,4,4-trifluoro-butane-1-one], the IC50 worked out at 358 nM.
